# Legend:
# Assay in all cases: relative viability (nuclei count vs DMSO), 5 days (fraction); higher = more cells survive
# BX 795 + Navitoclax = compound: O=C(NCCCNc1nc(Nc2cccc(NC(=O)N3CCCC3)c2)ncc1I)c1cccs1 [BX 795] + CC1(C)CCC(c2ccc(Cl)cc2)=C(CN2CCN(c3ccc(C(=O)NS(=O)(=O)c4ccc(N[C@H](CCN5CCOCC5)CSc5ccccc5)c(S(=O)(=O)C(F)(F)F)c4)cc3)CC2)C1 [Navitoclax] (partner 0.5 µM)
# Method in brief: (§1)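 Relative viability is defined as nuclei in treated wells over nuclei in vehicle wells. Duplicate plates were run and medians reported. Lung cancer cell lines in 1536-well plates were dosed by pin tool one day after seeding, with one drug or with a fixed anchor-drug dose plus five library-drug doses (not always all listed) in √10 steps, and nuclei were counted after 5 days.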
# BX 795 + Lapatinib = compound: O=C(NCCCNc1nc(Nc2cccc(NC(=O)N3CCCC3)c2)ncc1I)c1cccs1 [BX 795] + CS(=O)(=O)CCNCc1ccc(-c2ccc3ncnc(Nc4ccc(OCc5cccc(F)c5)c(Cl)c4)c3c2)o1 [Lapatinib] (partner 2 µM)
# Method in brief: as §1
# BX 795 + Linsitinib = compound: O=C(NCCCNc1nc(Nc2cccc(NC(=O)N3CCCC3)c2)ncc1I)c1cccs1 [BX 795] + C[C@]1(O)C[C@@H](c2nc(-c3ccc4ccc(-c5ccccc5)nc4c3)c3c(N)nccn32)C1 [Linsitinib] (partner 1 µM)
# Method in brief: as §1
# BX 795 + Decitabine = compound: O=C(NCCCNc1nc(Nc2cccc(NC(=O)N3CCCC3)c2)ncc1I)c1cccs1 [BX 795] + Nc1ncn([C@H]2C[C@H](O)[C@@H](CO)O2)c(=O)n1 [Decitabine] (partner 2 µM)
# Method in brief: as §1
# BX 795 + Vorinostat = compound: O=C(NCCCNc1nc(Nc2cccc(NC(=O)N3CCCC3)c2)ncc1I)c1cccs1 [BX 795] + O=C(CCCCCCC(=O)Nc1ccccc1)NO [Vorinostat] (partner 1 µM)
# Method in brief: as §1
Cell Line,relative viability (BX 795 + Navitoclax; first compound 0.04 µM),relative viability (BX 795 + Navitoclax; first compound 0.1265 µM),relative viability (BX 795 + Navitoclax; first compound 0.4 µM),relative viability (BX 795 + Navitoclax; first compound 1.265 µM),relative viability (BX 795 + Lapatinib; first compound 0.04 µM),relative viability (BX 795 + Lapatinib; first compound 0.1265 µM),relative viability (BX 795 + Lapatinib; first compound 0.4 µM),relative viability (BX 795 + Lapatinib; first compound 1.265 µM),relative viability (BX 795 + Linsitinib; first compound 0.04 µM),relative viability (BX 795 + Linsitinib; first compound 0.1265 µM),relative viability (BX 795 + Linsitinib; first compound 0.4 µM),relative viability (BX 795 + Linsitinib; first compound 1.265 µM),relative viability (BX 795 + Decitabine; first compound 0.04 µM),relative viability (BX 795 + Decitabine; first compound 0.1265 µM),relative viability (BX 795 + Decitabine; first compound 0.4 µM),relative viability (BX 795 + Decitabine; first compound 1.265 µM),relative viability (BX 795 + Vorinostat; first compound 0.04 µM),relative viability (BX 795 + Vorinostat; first compound 0.1265 µM),relative viability (BX 795 + Vorinostat; first compound 0.4 µM),relative viability (BX 795 + Vorinostat; first compound 1.265 µM)
LOU-NH91,0.686,0.735,0.594,0.686,0.698,0.744,0.708,0.715,0.925,0.956,0.802,0.94,0.818,0.791,0.803,0.798,0.846,0.955,0.842,0.903
NCI-H1915,0.824,0.782,0.766,0.691,0.947,0.951,0.947,0.827,1.16,1.09,1.08,1.02,0.292,0.225,0.309,0.245,0.534,0.51,0.525,0.49
NCI-H1666,1.12,1.31,1.14,0.717,0.858,0.653,0.695,0.656,0.777,1.07,1.05,0.74,0.925,0.69,0.785,0.686,1.13,0.97,1.22,0.923
LCLC-97TM1,0.398,0.45,0.529,0.432,1.05,0.842,0.926,0.362,0.156,0.204,0.198,0.153,0.268,0.264,0.367,0.227,0.774,0.725,0.768,0.468
HCC-827,1.1,0.974,1.05,0.908,0.186,0.18,0.215,0.191,0.972,0.849,0.987,0.75,0.416,0.327,0.387,0.303,0.756,0.689,0.901,0.79
NCI-H647,,1.08,1.07,1.01,1.08,1.21,0.941,0.362,1.25,1.16,1.28,0.601,0.383,0.447,0.513,0.37,0.553,0.658,0.571,0.189
NCI-H460,1.1,1.25,1.16,0.973,0.952,1.62,0.892,0.729,0.708,1.01,0.605,0.281,0.497,0.584,0.446,0.403,0.822,0.967,0.48,0.285
NCI-H2087,0.901,1,1.25,0.801,1.24,1.05,1.08,0.975,1.1,0.924,1.06,0.647,0.387,0.347,0.369,0.143,0.762,1.06,0.95,0.587
NCI-H1944,1.14,1.11,1.07,0.953,0.903,0.781,0.879,0.642,1.25,1.36,1.14,1.1,0.471,0.497,0.534,0.408,0.674,0.637,0.575,0.475
COR-L23,1.15,1.02,1.02,0.524,1.14,1.17,0.884,0.663,0.909,0.827,0.961,0.4,0.53,0.42,0.516,0.319,0.379,0.458,0.205,0.106
NCI-H1355,0.974,0.937,1.09,0.626,1.05,0.976,1.11,0.946,0.768,0.869,0.811,0.65,0.355,0.278,0.449,0.337,0.649,0.63,0.696,0.487
HOP-62,1.09,1.24,1.21,1.07,1.09,1.1,1.29,1.07,0.915,1.02,1.2,0.525,0.241,0.223,0.295,0.296,0.807,0.638,0.546,0.456
PC-14,0.976,0.988,1.08,0.795,0.284,0.35,0.271,0.203,0.923,0.917,0.879,0.75,0.226,0.211,0.17,0.178,0.819,0.778,0.424,0.433
NCI-H1793,0.575,0.362,0.39,0.272,0.534,0.682,0.875,0.785,0.874,1.06,1.01,0.507,0.589,0.443,0.674,0.374,0.888,0.753,0.803,0.293
NCI-H2023,0.933,1.08,0.36,0.645,0.538,0.749,0.32,0.522,0.572,0.71,0.445,0.314,0.241,0.238,0.21,0.199,0.471,0.689,0.189,0.3

# From the supplement of paper PMC10307832
